Reference: patent publication US4317775A (Hoffmann-La Roche Inc., priority 1980, dated 1982)
Counter-ions that a name gives are not always drawn.

Tests used:
Salmonella typhosa = assay: In vitro activity (MIC/MBC), Salmonella typhosa; type: cell-based; settings: Salmonella enterica; for MBC: read-out: Minimum Inhibitory Concentration (MBC), MBC, Salmonella typhosa; for MIC: read-out: Minimum Inhibitory Concentration (MIC), Salmonella typhosa
From the text: (§1) MIC is the Minimum Inhibitory Concentration. MBC is the Minimum Bactericidal Concentration.
(§2) Results reported in Table 3(a) are reported as MIC defined above and results reported in Table 3(b) are reported as MBC defined above.

S. schottmuelleri = assay: In vivo activity against systemic infection in mice, S. schottmuelleri
From the text: (§3) The PD50 is the protective dose for 50% of the animals treated against a challenge organism.

[1] = test system: Streptococcus pneumoniae I; assay: In vitro activity (MIC/MBC), Streptococcus pneumoniae I; type: cell-based; settings: for MBC: read-out: Minimum Inhibitory Concentration (MBC); for MIC: read-out: Minimum Inhibitory Concentration (MIC)
From the text: as §1, §2

S. typhosa = assay: In vivo activity against systemic infection in mice, S. typhosa
From the text: as §3

[2] = test system: Salmonella schottmuelleri; assay: In vitro activity (MIC/MBC), Salmonella schottmuelleri; type: cell-based; settings: for MBC: Salmonella schottmuelleri, read-out: Minimum Inhibitory Concentration (MBC); for MIC: Salmonella, read-out: Minimum Inhibitory Concentration (MIC)
From the text: as §1, §2

S. pneumoniae I = assay: In vivo activity against systemic infection in mice, S. pneumoniae I
From the text: as §3

S. aureus = assay: In vivo activity against systemic infection in mice, S. aureus; settings: in mg/kg
From the text: as §3

E. coli = assay: In vivo activity against systemic infection in mice, E. coli; settings: in mg/kg
From the text: as §3

Escherichia coli = assay: In vitro activity (MIC/MBC), Escherichia coli; type: cell-based; settings: for MBC: read-out: Minimum Inhibitory Concentration (MBC); for MIC: read-out: Minimum Inhibitory Concentration (MIC)
From the text: as §1, §2

Staphylococcus aureus = assay: In vitro activity (MIC/MBC), Staphylococcus aureus; type: cell-based; settings: for MBC: read-out: Minimum Inhibitory Concentration (MBC); for MIC: read-out: Minimum Inhibitory Concentration (MIC)
From the text: as §1, §2

in vivo = settings: mouse
Klebsiella pneumoniae = assay: In vitro activity (MIC/MBC), Klebsiella pneumoniae; type: cell-based; settings: for MBC: read-out: Minimum Inhibitory Concentration (MBC); for MIC: read-out: Minimum Inhibitory Concentration (MIC)
From the text: as §1, §2

Streptococcus pyogenes = assay: In vitro activity (MIC/MBC), Streptococcus pyogenes; type: cell-based; settings: for MBC: read-out: Minimum Inhibitory Concentration (MBC); for MIC: read-out: Minimum Inhibitory Concentration (MIC)
From the text: as §1, §2

K. pneumoniae = assay: In vivo activity against systemic infection in mice, K. pneumoniae; settings: in mg/kg
From the text: as §3

S. pyogenes = assay: In vivo activity against systemic infection in mice, S. pyogenes
From the text: as §3

[3] = Stability in aqueous solution (percent retention); type: physicochemical; settings: for Percent Retention: 6 hrs + 5° C., 192 hrs
Method: The stability of the compound was determined in 0.9% saline solution, 5% aqueous dextrose solution and in water, both at room temperature and/or 5° C.

S. pneumoniae II = assay: In vivo activity against systemic infection in mice, S. pneumoniae II
From the text: as §3

[4] = test system: Streptococcus pneumonia II; assay: In vitro activity (MIC/MBC), Streptococcus pneumonia II; type: cell-based; settings: Streptococcus pneumoniae
From the text: as §1, §2

P. mirabilis = assay: In vivo activity against systemic infection in mice, P. mirabilis; settings: in mg/kg
From the text: as §3

[5] = 5% dextrose in water, 2.10 mg/ml, RT
[6] = 5% dextrose in water, 2.20 mg/ml, 5° C.
[7] = 5% dextrose in water, 30 mg/ml, RT
[8] = 5% dextrose in water, 33 mg/ml, 5° C.
[9] = aqueous concentrate, 155 mg/ml, 5° C.

## CC1(C)S[C@@H]2[C@H](NC(=O)[C@@H](c3ccc(O)cc3)N(C3CCCCO3)C3CCCCO3)C(=O)N2[C@H]1C(=O)O (relative stereo) [Compound II, {2S-[2α,5α,6β(S*)]}-6-[bis(tetrahydro-2-H-pyran-2-yl)amino]{[(4-hydroxyphenyl)acetyl]amino}-3,3-dimethyl-7-oxo-4-thia-1-azabicyclo[3.2.0]heptane3-carboxylic acid sodium salt]
Salmonella typhosa
  MBC: 0.12 µg/mL
  MIC: 0.12 µg/mL
S. schottmuelleri; oral
  PD50: 1.9 mg/kg
S. schottmuelleri; subcutaneous
  PD50: 5.7 mg/kg
[1]
  MBC: 0.049 µg/mL
  MIC: 0.049 µg/mL
S. typhosa; oral
  PD50: 3.6 mg/kg
S. typhosa; subcutaneous
  PD50: 1.4 mg/kg
[2]
  MBC: 0.98 µg/mL
  MIC: 0.98 µg/mL
S. pneumoniae I; oral
  PD50: 0.7 mg/kg
S. pneumoniae I; subcutaneous
  PD50: 0.7 mg/kg
S. aureus; subcutaneous
  PD50: 0.5
E. coli; oral
  PD50: 23
E. coli; subcutaneous
  PD50: 18
Escherichia coli
  MBC: 3.94 µg/mL
  MIC: 3.94 µg/mL
Staphylococcus aureus
  MBC: 0.098 µg/mL
  MIC: 0.098 µg/mL
In vivo; ip
  LD50: 6310 mg/kg
In vivo; po
  LD50: > 6310 mg/kg
In vivo; sc
  LD50: 4460 mg/kg
Klebsiella pneumoniae
  MBC: 0.98 µg/mL
  MIC: 0.09 µg/mL
Streptococcus pyogenes
  MBC: 6.31 µg/mL
  MIC: 0.39 µg/mL
K. pneumoniae; oral
  PD50: 8.6
K. pneumoniae; subcutaneous
  PD50: 5.7
S. pyogenes; oral
  PD50: 1.9 mg/kg
S. pyogenes; subcutaneous
  PD50: 3.4 mg/kg
[3]; 0.9% saline, 2.20 mg/ml, 5° C.
  remaining at 24 h: 100%
  remaining at 48 h: 100%
[3]; 0.9% saline, 2.25 mg/ml, RT
  remaining at 6 h: 96%
  Percent Retention: 98%
[3]; 0.9% saline, 2.30 mg/ml, RT
  remaining at 6 h: 96%
  remaining at 24 h: 91%
  remaining at 48 h: 84%
[3]; 0.9% saline, 29.1 mg/ml, RT
  remaining at 6 h: 97%
[3]; 0.9% saline, 0.2% solution, 5° C.
  time for which 90% of potency was maintained: ≥ 192 h
[3]; 0.9% saline, 0.2% solution, room temperature
  time for which 90% of potency was maintained: about 24 hours
[3]; 0.9% saline, 3% solution, 5° C.
  time for which 90% of potency was maintained: ≥ 192 h
[3]; 0.9% saline, 3% solution, room temperature
  time for which 90% of potency was maintained: less than 24 hours
[3]; 0.9% saline, 31. mg/ml, 5° C.
  remaining at 24 h: 100%
  remaining at 48 h: 100%
[3]; 0.9% saline, 34. mg/ml, RT
  remaining at 6 h: 97%
  remaining at 24 h: 85%
  remaining at 48 h: 76%
[3]; 5% Dextrose in Water, 2.10 mg/ml, RT
  Percent Retention: 73%
[3]; 5% Dextrose in Water, 31 mg/ml, RT
  Percent Retention: 81%
[3]; [5]
  remaining at 6 h: 95%
  remaining at 24 h: 89%
  remaining at 48 h: 71%
[3]; [6]
  remaining at 24 h: 95%
  remaining at 48 h: 91%
[3]; [7]
  remaining at 6 h: 96%
  remaining at 24 h: 92%
  remaining at 48 h: 83%
[3]; 5% dextrose in water, 31 mg/ml, RT
  remaining at 6 h: 100%
[3]; [8]
  remaining at 24 h: 94%
  remaining at 48 h: 84%
[3]; 5% dextrose in water, 0.2% solution, 5° C.
  time for which 90% of potency was maintained: 48 h
[3]; 5% dextrose in water, 0.2% solution, room temperature
  time for which 90% of potency was maintained: about 24 hours
[3]; 5% dextrose in water, 3% solution, 5° C.
  time for which 90% of potency was maintained: less than 48 hours
[3]; 5% dextrose in water, 3% solution, room temperature
  time for which 90% of potency was maintained: about 24 hours
[3]; [9]
  remaining at 24 h: 100%
  remaining at 48 h: 100%

## CCC1CC(F)C(N(C2OC(CC)CC2F)[C@@H](C(=O)N[C@@H]2C(=O)N3[C@@H]2SC(C)(C)[C@@H]3C(=O)O)c2ccc(O)cc2)O1 (relative stereo) [Compound IV, {2S-[2α,5α,6β(S*)]}-6-{bis[5-ethyl-3-fluoro-2-tetrahydrofuranylamino-(4-hydrophenyl)-acetyl]amino}-3,3-dimethyl-7-oxo-4-thia-1-azabicyclo-[3.2.0]heptane-2-carboxylic acid sodium salt]
S. pneumoniae I; oral
  PD50: 0.7 mg/kg
S. pneumoniae I; subcutaneous
  PD50: 0.9 mg/kg
S. aureus; oral
  PD50: 1.2
S. aureus; subcutaneous
  PD50: 0.34
E. coli; oral
  PD50: 22.1
E. coli; subcutaneous
  PD50: 10.4
Escherichia coli
  MBC: 3.5 µg/mL
  MIC: 3.5 µg/mL
Staphylococcus aureus
  MBC: 0.055 µg/mL
  MIC: 0.055 µg/mL
S. pneumoniae II; oral
  PD50: 0.7 mg/kg
S. pneumoniae II; subcutaneous
  PD50: 0.5 mg/kg
In vivo; ip
  LD50: 3520 mg/kg
In vivo; po
  LD50: 3960 mg/kg
In vivo; sc
  LD50: 2800 mg/kg
Klebsiella pneumoniae
  MBC: 0.437 µg/mL
  MIC: 0.218 µg/mL
Streptococcus pyogenes
  MBC: > 0.218 µg/mL
  MIC: 0.027 µg/mL
K. pneumoniae; oral
  PD50: 4.8
K. pneumoniae; subcutaneous
  PD50: 2.4
S. pyogenes; oral
  PD50: 6 mg/kg
S. pyogenes; subcutaneous
  PD50: 4.4 mg/kg
[4]; MBC, read-out: Minimum Inhibitory Concentration (MBC)
  MBC: 0.027 µg/mL
[4]; read-out: Minimum Inhibitory Concentration (MIC)
  MIC: 0.013 µg/mL
P. mirabilis; oral
  PD50: 1.6
P. mirabilis; subcutaneous
  PD50: 0.4

## CC1(C)S[C@@H]2[C@H](NC(=O)[C@H](NC3CCCO3)c3ccc(O)cc3)C(=O)N2[C@H]1C(=O)O (relative stereo) [Compound I, {2S-[2α,5α,6β(S*)]}-6-{[2-tetrahydrofuranylamino(4-hydroxyphenyl)acetyl]amino}-3,3-dimethyl-7-oxo-4-thia-1-azabicyclo[3.2.0]heptane-2-carboxylic acid sodium salt]
Salmonella typhosa
  MBC: 0.35 µg/mL
  MIC: 0.35 µg/mL
S. schottmuelleri; oral
  PD50: 5.4 mg/kg
S. schottmuelleri; subcutaneous
  PD50: 2.4 mg/kg
[1]
  MBC: 0.022 µg/mL
  MIC: 0.022 µg/mL
S. typhosa; oral
  PD50: 8 mg/kg
S. typhosa; subcutaneous
  PD50: 7.3 mg/kg
[2]
  MBC: 1.42 µg/mL
  MIC: 0.71 µg/mL
S. pneumoniae I; oral
  PD50: 1.5 mg/kg
S. pneumoniae I; subcutaneous
  PD50: 0.7 mg/kg
E. coli; oral
  PD50: 23.8
E. coli; subcutaneous
  PD50: 8.2
Escherichia coli
  MBC: 5.69 µg/mL
  MIC: 5.69 µg/mL
Staphylococcus aureus
  MBC: 0.177 µg/mL
  MIC: 0.177 µg/mL
In vivo; ip
  LD50: 3220 mg/kg
In vivo; po
  LD50: 9100 mg/kg
In vivo; sc
  LD50: 4550 mg/kg
Klebsiella pneumoniae
  MBC: 0.71 µg/mL
  MIC: 0.71 µg/mL
Streptococcus pyogenes
  MBC: 2.84 µg/mL
  MIC: 0.022 µg/mL
K. pneumoniae; oral
  PD50: 9.9
K. pneumoniae; subcutaneous
  PD50: 3.8
S. pyogenes; oral
  PD50: 3.8 mg/kg
S. pyogenes; subcutaneous
  PD50: 7 mg/kg
